{
  "source": "paper PMC5218480",
  "about": "(PLoS ONE, 2017)",
  "test_system": "MV-4-11 cells",
  "test": "Gene expression microarray analysis (Affymetrix PrimeView) and GSEA",
  "format": "cell-based, human",
  "set-up": "RFU PODN (11730768_x_at) / Fold change /veh PODN (11730768_x_at) / RFU LINC00158 (11744669_a_at) / Fold change /veh LINC00158 (11744669_a_at) / RFU DUSP10 (11751237_a_at) / Fold change /veh DUSP10 (11751237_a_at) / RFU ID3 (11757404_x_at) / Fold change /veh ID3 (11757404_x_at) / RFU PLEKHG5 (11737974_s_at) / Fold change /veh PLEKHG5 (11737974_s_at) / RFU LRRC4B (11730491_at) / Fold change /veh LRRC4B (11730491_at) / RFU GIMAP4 (11747438_a_at) / Fold change /veh GIMAP4 (11747438_a_at) / RFU KRT8 (11758183_x_at) / Fold change /veh KRT8 (11758183_x_at) / RFU CNN1 (11734310_a_at) / Fold change /veh CNN1 (11734310_a_at) / RFU VPS37D (11726825_at) / Fold change /veh VPS37D (11726825_at) / RFU C10orf10 (11716522_x_at) / Fold change /veh C10orf10 (11716522_x_at) / RFU KIR2DL2 /// KIR2DL4 /// KIR2DL5A /// KIR2DL5B /// KIR2DS1 /// KIR2DS2 /// KIR2DS3 /// KIR2DS4 /// KIR3DL3 /// KIR3DL3 /// KIR3DS1 (11738374_at) / Fold change /veh KIR2DL2 /// KIR2DL4 /// KIR2DL5A /// KIR2DL5B /// KIR2DS1 /// KIR2DS2 /// KIR2DS3 /// KIR2DS4 /// KIR3DL3 /// KIR3DL3 /// KIR3DS1 (11738374_at) / RFU C1QL1 (11718748_at) / Fold change /veh C1QL1 (11718748_at) / RFU TMPRSS4 (11747572_a_at) / Fold change /veh TMPRSS4 (11747572_a_at) / RFU HAMP (11756126_x_at) / Fold change /veh HAMP (11756126_x_at) / RFU RNFT2 (11725882_a_at) / Fold change /veh RNFT2 (11725882_a_at) / RFU NR4A2 (11747474_a_at) / Fold change /veh NR4A2 (11747474_a_at) / RFU ABCC12 (11746883_a_at) / Fold change /veh ABCC12 (11746883_a_at) / RFU TMEM136 (11760407_x_at) / Fold change /veh TMEM136 (11760407_x_at) / RFU CLDN22 /// WWC2 (11732394_at) / Fold change /veh CLDN22 /// WWC2 (11732394_at) / RFU HLA-DPB1 (11760878_x_at) / Fold change /veh HLA-DPB1 (11760878_x_at) / RFU SPINT1 (11716480_a_at) / Fold change /veh SPINT1 (11716480_a_at) / RFU GAP43 (11754022_s_at) / Fold change /veh GAP43 (11754022_s_at) / RFU A4GNT (11735810_at) / Fold change /veh A4GNT (11735810_at) / RFU PRB3 (11715151_x_at) / Fold change /veh PRB3 (11715151_x_at) / RFU TUBB4B (11761932_at) / Fold change /veh TUBB4B (11761932_at) / RFU CAPN14 (11732068_a_at) / Fold change /veh CAPN14 (11732068_a_at) / RFU TMCC2 (11721928_a_at) / Fold change /veh TMCC2 (11721928_a_at) / RFU IRGQ (11745062_a_at) / Fold change /veh IRGQ (11745062_a_at) / RFU FAM174B (11720279_a_at) / Fold change /veh FAM174B (11720279_a_at) / RFU TMPRSS4 (11748680_a_at) / Fold change /veh TMPRSS4 (11748680_a_at) / RFU FAM212B (11763350_a_at) / Fold change /veh FAM212B (11763350_a_at) / RFU PLEKHG5 (11743358_a_at) / Fold change /veh PLEKHG5 (11743358_a_at) / RFU ZSCAN30 (11745921_a_at) / Fold change /veh ZSCAN30 (11745921_a_at) / RFU CMKLR1 (11741424_a_at) / Fold change /veh CMKLR1 (11741424_a_at) / RFU LOC101060620 /// MAPK8IP1 (11723275_at) / Fold change /veh LOC101060620 /// MAPK8IP1 (11723275_at) / RFU SPTSSB (11747773_x_at) / Fold change /veh SPTSSB (11747773_x_at) / RFU PRSS12 (11739890_at) / Fold change /veh PRSS12 (11739890_at) / RFU BIN1 (11741810_x_at) / Fold change /veh BIN1 (11741810_x_at) / RFU WNT11 (11732464_a_at) / Fold change /veh WNT11 (11732464_a_at) / RFU C10orf10 (11716521_a_at) / Fold change /veh C10orf10 (11716521_a_at) / RFU C5orf56 (11738089_at) / Fold change /veh C5orf56 (11738089_at) / RFU CYB561 (11721691_x_at) / Fold change /veh CYB561 (11721691_x_at) / RFU ANKRD19P (11752326_a_at) / Fold change /veh ANKRD19P (11752326_a_at) / RFU OR2T12 /// OR2T33 /// OR2T8 (11738714_s_at) / Fold change /veh OR2T12 /// OR2T33 /// OR2T8 (11738714_s_at) / RFU VCAN (11748164_a_at) / Fold change /veh VCAN (11748164_a_at) / RFU JSRP1 (11732532_at) / Fold change /veh JSRP1 (11732532_at) / RFU KRTAP10-11 (11738290_x_at) / Fold change /veh KRTAP10-11 (11738290_x_at) / RFU MYO3A (11730013_a_at) / Fold change /veh MYO3A (11730013_a_at) / RFU EBF3 (11725865_a_at) / Fold change /veh EBF3 (11725865_a_at) / RFU CAMK2N1 (11719241_x_at) / Fold change /veh CAMK2N1 (11719241_x_at) / RFU C5orf56 (11738088_a_at) / Fold change /veh C5orf56 (11738088_a_at) / RFU OLFML3 (11715873_a_at) / Fold change /veh OLFML3 (11715873_a_at) / RFU LOC100653217 /// NTM (11731650_a_at) / Fold change /veh LOC100653217 /// NTM (11731650_a_at) / RFU MAPK11 (11762145_a_at) / Fold change /veh MAPK11 (11762145_a_at) / RFU FIZ1 (11724087_x_at) / Fold change /veh FIZ1 (11724087_x_at) / RFU OASL (11726364_x_at) / Fold change /veh OASL (11726364_x_at) / RFU SOX15 (11748057_x_at) / Fold change /veh SOX15 (11748057_x_at) / RFU CD79A (11719716_a_at) / Fold change /veh CD79A (11719716_a_at) / RFU HIST1H1D (11736915_at) / Fold change /veh HIST1H1D (11736915_at) / RFU CASKIN2 (11723855_a_at) / Fold change /veh CASKIN2 (11723855_a_at) / RFU LOC730098 (11760151_x_at) / Fold change /veh LOC730098 (11760151_x_at) / RFU OR4N2 (11742367_at) / Fold change /veh OR4N2 (11742367_at) / RFU PRRT2 (11749266_a_at) / Fold change /veh PRRT2 (11749266_a_at) / RFU SNX32 (11753110_a_at) / Fold change /veh SNX32 (11753110_a_at) / RFU CDHR5 (11726645_a_at) / Fold change /veh CDHR5 (11726645_a_at) / RFU RCAN1 (11760418_a_at) / Fold change /veh RCAN1 (11760418_a_at) / RFU FAM167A (11723789_a_at) / Fold change /veh FAM167A (11723789_a_at) / RFU FAM26E (11764081_at) / Fold change /veh FAM26E (11764081_at) / RFU ISYNA1 (11749810_s_at) / Fold change /veh ISYNA1 (11749810_s_at) / RFU ACY1 (11761880_at) / Fold change /veh ACY1 (11761880_at) / RFU 11764098_at / Fold change /veh 11764098_at / RFU SAMD14 (11745864_x_at) / Fold change /veh SAMD14 (11745864_x_at) / RFU NPB (11741838_a_at) / Fold change /veh NPB (11741838_a_at) / RFU TMPRSS6 (11731388_a_at) / Fold change /veh TMPRSS6 (11731388_a_at) / RFU KRTAP10-2 (11738614_at) / Fold change /veh KRTAP10-2 (11738614_at) / RFU ARHGAP8 /// PRR5-ARHGAP8 (11727945_x_at) / Fold change /veh ARHGAP8 /// PRR5-ARHGAP8 (11727945_x_at) / RFU KRTAP5-7 /// NADSYN1 (11734609_at) / Fold change /veh KRTAP5-7 /// NADSYN1 (11734609_at) / RFU RASL12 (11751679_a_at) / Fold change /veh RASL12 (11751679_a_at) / RFU CDKN2B (11736163_a_at) / Fold change /veh CDKN2B (11736163_a_at) / RFU PRF1 (11729649_at) / Fold change /veh PRF1 (11729649_at) / RFU, ZNF638 /// ZNF638-IT1 / Fold change vs veh, ZNF638 /// ZNF638-IT1 / RFU, PANK3 / Fold change vs veh, PANK3 / RFU, SH3YL1 / Fold change vs veh, SH3YL1 / RFU, ZEB2 / Fold change vs veh, ZEB2 / RFU, NRIP1 / Fold change vs veh, NRIP1 / RFU, PTTG1IP / Fold change vs veh, PTTG1IP / RFU, CAPN2 / Fold change vs veh, CAPN2 / RFU, MED14 / Fold change vs veh, MED14 / RFU, SNORA58 / Fold change vs veh, SNORA58 / RFU, C1orf63 / Fold change vs veh, C1orf63 / RFU, LRRFIP1 / Fold change vs veh, LRRFIP1 / RFU, NDUFAF7 / Fold change vs veh, NDUFAF7 / RFU, SLC12A2 / Fold change vs veh, SLC12A2 / RFU, IBTK / Fold change vs veh, IBTK / RFU, ESF1 / Fold change vs veh, ESF1 / Fold change vs veh, TMEM50B / RFU, TAOK1 / Fold change vs veh, TAOK1 / RFU, ACBD3 / Fold change vs veh, ACBD3 / RFU, TMA16 / Fold change vs veh, TMA16 / RFU, RWDD3 / Fold change vs veh, RWDD3 / RFU, BCAT1 / Fold change vs veh, BCAT1 / RFU, EDEM3 / Fold change vs veh, EDEM3 / RFU, TMEM33 / Fold change vs veh, TMEM33 / RFU, WDR75 / Fold change vs veh, WDR75 / RFU, AHCTF1 / Fold change vs veh, AHCTF1 / RFU, TFRC / Fold change vs veh, TFRC / RFU, ZDHHC17 / Fold change vs veh, ZDHHC17 / RFU, NOM1 / Fold change vs veh, NOM1 / RFU, ARL8B / Fold change vs veh, ARL8B / RFU, ZBTB11 / Fold change vs veh, ZBTB11 / RFU, TAMM41 / Fold change vs veh, TAMM41 / RFU, KIAA1704 /// LOC100996395 / Fold change vs veh, KIAA1704 /// LOC100996395 / RFU, ING1 / Fold change vs veh, ING1 / RFU, TRMT61B / Fold change vs veh, TRMT61B / RFU, FUBP3 / Fold change vs veh, FUBP3 / RFU, TP53 / Fold change vs veh, TP53 / RFU, TNKS2 / Fold change vs veh, TNKS2 / RFU, ZFP14 / Fold change vs veh, ZFP14 / RFU, ACTR2 / Fold change vs veh, ACTR2 / RFU, PPP3R1 / Fold change vs veh, PPP3R1 / RFU, PIK3R1 / Fold change vs veh, PIK3R1 / RFU, HNRNPA1 / Fold change vs veh, HNRNPA1 / RFU, RNF170 / Fold change vs veh, RNF170 / RFU, ZNF28 / Fold change vs veh, ZNF28 / RFU, RNGTT / Fold change vs veh, RNGTT / RFU, OGT / Fold change vs veh, OGT / RFU, BRD1 / Fold change vs veh, BRD1 / RFU, MARS / Fold change vs veh, MARS / RFU, ZNF655 / Fold change vs veh, ZNF655 / RFU, FAHD1 / Fold change vs veh, FAHD1 / RFU, BDP1 / Fold change vs veh, BDP1 / RFU, LRRCC1 / Fold change vs veh, LRRCC1 / RFU, ARID1A / Fold change vs veh, ARID1A / RFU, ZNF146 / Fold change vs veh, ZNF146 / RFU, ZNF330 / Fold change vs veh, ZNF330 / RFU, GPN3 / Fold change vs veh, GPN3 / RFU, C9orf123 / Fold change vs veh, C9orf123 / RFU, N4BP2L2 / Fold change vs veh, N4BP2L2 / RFU, ARFIP1 / Fold change vs veh, ARFIP1 / RFU, FAM179B / Fold change vs veh, FAM179B / RFU, BCL10 / Fold change vs veh, BCL10 / RFU, UHRF1BP1L / Fold change vs veh, UHRF1BP1L / RFU, BET1 / Fold change vs veh, BET1 / RFU, CNOT2 / Fold change vs veh, CNOT2 / RFU, ZNF268 / Fold change vs veh, ZNF268 / Fold change vs veh, ZNF507 / RFU, DGCR2 / Fold change vs veh, DGCR2 / RFU, WDSUB1 / Fold change vs veh, WDSUB1 / Fold change vs veh, HSP90B1 /// MIR3652 / RFU, ADSS / Fold change vs veh, ADSS / RFU, GK / Fold change vs veh, GK / RFU, ZNF148 / Fold change vs veh, ZNF148 / RFU, TAF9 / Fold change vs veh, TAF9 / RFU, SLC1A5 / Fold change vs veh, SLC1A5 / RFU, SLMO2 / Fold change vs veh, SLMO2 / RFU, ABCC4 / Fold change vs veh, ABCC4 / RFU, LOC101060439 /// RAP1B / Fold change vs veh, LOC101060439 /// RAP1B / RFU, RFX7 / Fold change vs veh, RFX7 / RFU, GTPBP10 / Fold change vs veh, GTPBP10 / RFU, CNEP1R1 / Fold change vs veh, CNEP1R1 / RFU, BIVM-ERCC5 /// ERCC5 / Fold change vs veh, BIVM-ERCC5 /// ERCC5 / RFU, ILF3 / Fold change vs veh, ILF3 / RFU 11762660_at / Fold change /veh 11762660_at / RFU VCAN (11757783_s_at) / Fold change /veh VCAN (11757783_s_at) / RFU DDX43 (11728927_at) / Fold change /veh DDX43 (11728927_at) / RFU KRT8 (11758188_x_at) / Fold change /veh KRT8 (11758188_x_at) / RFU NKD1 (11759106_at) / Fold change /veh NKD1 (11759106_at) / RFU SRD5A1 (11742802_a_at) / Fold change /veh SRD5A1 (11742802_a_at) / RFU TPSAB1 /// TPSB2 (11721975_s_at) / Fold change /veh TPSAB1 /// TPSB2 (11721975_s_at) / RFU GSTM3 (11746129_a_at) / Fold change /veh GSTM3 (11746129_a_at) / RFU IL23R (11737362_x_at) / Fold change /veh IL23R (11737362_x_at) / RFU TMEM51 (11727254_a_at) / Fold change /veh TMEM51 (11727254_a_at) / RFU PIWIL2 (11732686_x_at) / Fold change /veh PIWIL2 (11732686_x_at) / RFU ORM1 (11744905_x_at) / Fold change /veh ORM1 (11744905_x_at) / RFU CCDC152 (11743942_at) / Fold change /veh CCDC152 (11743942_at) / RFU ECM1 (11717891_a_at) / Fold change /veh ECM1 (11717891_a_at) / RFU IL23R (11748794_a_at) / Fold change /veh IL23R (11748794_a_at) / RFU TNFAIP8L3 (11732012_x_at) / Fold change /veh TNFAIP8L3 (11732012_x_at) / RFU MBOAT4 (11741988_at) / Fold change /veh MBOAT4 (11741988_at) / RFU 11764193_at / Fold change /veh 11764193_at / RFU TMEM53 (11763286_at) / Fold change /veh TMEM53 (11763286_at) / RFU MAGEB2 (11727129_at) / Fold change /veh MAGEB2 (11727129_at) / RFU TMEM200A (11744735_a_at) / Fold change /veh TMEM200A (11744735_a_at) / RFU CCDC152 (11751479_a_at) / Fold change /veh CCDC152 (11751479_a_at) / RFU FAM211A (11726209_a_at) / Fold change /veh FAM211A (11726209_a_at) / RFU RGS16 (11746705_a_at) / Fold change /veh RGS16 (11746705_a_at) / RFU VCAN (11755009_s_at) / Fold change /veh VCAN (11755009_s_at) / RFU RHOB (11743442_s_at) / Fold change /veh RHOB (11743442_s_at) / RFU RGS16 (11720943_a_at) / Fold change /veh RGS16 (11720943_a_at) / RFU RGS16 (11720944_at) / Fold change /veh RGS16 (11720944_at) / RFU, VPS4B / Fold change vs veh, VPS4B / RFU, CREB1 / Fold change vs veh, CREB1 / RFU, DNAJC13 / Fold change vs veh, DNAJC13 / RFU, GNAQ / Fold change vs veh, GNAQ / RFU, CDK5R1 / Fold change vs veh, CDK5R1 / RFU, ZRANB3 / Fold change vs veh, ZRANB3 / RFU, CUL4A / Fold change vs veh, CUL4A / RFU, CCNY / Fold change vs veh, CCNY / RFU, UFL1 / Fold change vs veh, UFL1 / RFU, COG3 / Fold change vs veh, COG3 / RFU, DIAPH2 / Fold change vs veh, DIAPH2 / RFU, SKA2 / Fold change vs veh, SKA2 / RFU, AFF3 / Fold change vs veh, AFF3 / RFU, LMF1 / Fold change vs veh, LMF1 / RFU, IPO11 / Fold change vs veh, IPO11 / RFU, DFFB / Fold change vs veh, DFFB / RFU, FOXP1 / Fold change vs veh, FOXP1 / RFU, CARD8 / Fold change vs veh, CARD8 / RFU, STRN3 / Fold change vs veh, STRN3 / RFU, ADK / Fold change vs veh, ADK / RFU, RASSF2 / Fold change vs veh, RASSF2 / RFU, WIPF1 / Fold change vs veh, WIPF1 / RFU, LARP1B / Fold change vs veh, LARP1B / RFU, RASA1 / Fold change vs veh, RASA1 / RFU, RB1 / Fold change vs veh, RB1 / RFU, PPFIA1 / Fold change vs veh, PPFIA1 / RFU, MAT2A / Fold change vs veh, MAT2A / RFU, CCT5 / Fold change vs veh, CCT5 / RFU, WDR92 / Fold change vs veh, WDR92 / RFU, CUX1 / Fold change vs veh, CUX1 / RFU, TTC7A / Fold change vs veh, TTC7A / RFU, TMEM135 / Fold change vs veh, TMEM135 / RFU, DEPTOR / Fold change vs veh, DEPTOR / RFU, CPM / Fold change vs veh, CPM / RFU, DNAJB6 / Fold change vs veh, DNAJB6 / RFU, CACNA2D3 / Fold change vs veh, CACNA2D3 / RFU, DTX4 / Fold change vs veh, DTX4 / RFU, TFCP2 / Fold change vs veh, TFCP2 / RFU, GMCL1 /// GMCL1P1 / Fold change vs veh, GMCL1 /// GMCL1P1 / RFU, AEBP2 / Fold change vs veh, AEBP2 / RFU, SNHG1 /// SNORD22 /// SNORD25 /// SNORD26 /// SNORD27 /// SNORD28 /// SNORD29 /// SNORD31 / Fold change vs veh, SNHG1 /// SNORD22 /// SNORD25 /// SNORD26 /// SNORD27 /// SNORD28 /// SNORD29 /// SNORD31 / Fold change (Aza/veh), C12orf56 (ProbeSet 11735607_a_at) / Fold change (ACY-1035/veh), C12orf56 (ProbeSet 11735607_a_at) / Fold change (Aza/veh), FGFR1OP (ProbeSet 11751329_s_at) / Fold change (ACY-1035/veh), FGFR1OP (ProbeSet 11751329_s_at) / Fold change (Aza/veh), VPS36 (ProbeSet 11739960_a_at) / Fold change (ACY-1035/veh), VPS36 (ProbeSet 11739960_a_at) / RFU SYPL1 (11715823_x_at) / Fold change /veh SYPL1 (11715823_x_at) / RFU IGFBP7 (11715501_s_at) / Fold change /veh IGFBP7 (11715501_s_at) / RFU REEP3 (11722064_at) / Fold change /veh REEP3 (11722064_at) / RFU IGLL1 (11728026_x_at) / Fold change /veh IGLL1 (11728026_x_at): dose or concentration left out as unconfirmed",
  "conditions": "MV-4-11 cells, 48 hours",
  "data": [
    {"compound": "Nc1ccc(-c2cccs2)cc1NC(=O)c1ccc2c(c1)cc(C1CC1)n2CCN1CCOCC1", "note": "[ACY-1035]", "values": [
      {"measurement": "RFU PRSS12 (11739890_at)", "result": 8.28, "unit": "RFU"}
    ]}
  ]
}
